Source: US7205382B2, “Peptides, the production and use thereof for binding immunoglobulins” (Fresenius Medical Care Affina GmbH, priority 2000, dated 2007)
Bridge positions count the residues as written; N and C are the ends. Square brackets hold non-standard residues; d marks the D form. Ends that are not written are not given here. cellulose = not defined here; βAla = NCCC(=O)O

Legend:
Type in all cases: binding
Parameters in all cases: key: No binding of immunoglobulin for the defined peptide variant, detection negative: 0; Binding of immunoglobulin for the defined peptide variant, detection positive: +
[1] = test system: immunoglobulins in human plasma; assay: Cellulose-immobilized 13-mer peptide variants incubated with human plasma, anti-human IgG-AP detection; settings: human plasma as sample, diluted 1:10,000 in blocking buffer, 3 h room temperature
Method: (§1) Peptides consisting of 13 amino acids were synthesized by solid phase synthesis (Houghten, 1985) on a cellulose matrix with (βA)(βA) as a spacer group.
(§2) The immobilized peptides were tested for their immunoglobulin binding capability by incubation with human IgG-Fc in a buffered solution and by incubation with human plasma.
(§3) Thus, the peptide variants immobilized on solid phases were washed with T-TBS buffer (136 mM NaCl, 1.6 mM KCl, 0.05% (v/v) Tween 20, 50 mM Tris-HCl, pH 8.0) and subsequently treated with blocking buffers (5% (w/v) saccharose, 4% (w/v) bovine serum albumin in T-TBS). Incubation of the immobilized peptides with IgG-Fc (1 μg/ml) in blocking buffer and human serum (diluted 1:10,000 in blocking buffer) was effected for 3 h at room temperature. For checking the specificity of the binding, buffered serum albumin solution (blocking buffer) without addition was included as a control. Thereafter, the peptide variants immobilized on the solid phases were washed three more times with T-TBS buffer.
(§4) After incubation with alkaline phosphatase-conjugated anti-human IgG antibody (1.2 μg/ml) in blocking buffer, detection of the immunoglobulin binding was effected by means of NBT (nitroblue tetrazolium chloride)/BCIP (5-bromo-4-chloro-3-indolyl phosphate toluidine salt) as a substrate (200 μl of parent solution (18.75 mg/ml NBT and 9.4 mg/ml BCIP in 67% (v/v) DMSO) in 10 ml developing buffer (100 mM Tris-HCl, 100 mM NaCl, 5 mM MgCl2, pH 9.5)).

human IgG-Fc = assay: Cellulose-immobilized 13-mer peptide variants incubated with human IgG-Fc, anti-human IgG-AP detection; settings: IgG-Fc 1 μg/ml in blocking buffer, 3 h room temperature
Method: as §1, §2, §3, §4

serum albumin = assay: Cellulose-immobilized 13-mer peptide variants incubated with serum albumin (negative control), anti-human IgG-AP detection; settings: blocking buffer without addition, 3 h room temperature
Method: as §1, §2, §3, §4

Substance | Result for incubation with human plasma (immunoglobulin binding detection) [1] | Result for incubation with human IgG-Fc (immunoglobulin binding detection) (human IgG-Fc) | Result for incubation with serum albumin (immunoglobulin binding detection) (serum albumin)
01P: cellulose-bound 13-mer variant PCAWHLGELVWCT-(βA)(βA) (PCAWHLGELVWCT-{βAla-βAla-cellulose}; disulfide 2-12 (inferred); reading uncertain; also: printed as PCAWHLGELVWCT-(βA)(βA)) | 0 | + | 0
06G: cellulose-bound 13-mer variant DCAWHGGELVWCT-(βA)(βA) (DCAWHGGELVWCT[βAla][βAla]; disulfide 2-12 (inferred); not fully specified (N-terminus); printed as DCAWHGGELVWCT-(βA)(βA); also: cellulose-bound) | + | + | 0
04L: cellulose-bound 13-mer variant DCALHLGELVWCT-(βA)(βA) (DCALHLGELVWCT[βAla][βAla]; disulfide 2-12 (inferred); also: cellulose-bound) | 0 | + | 0
11H: cellulose-bound 13-mer variant DCAWHLGELVHCT-(βA)(βA) | 0 | + | 0
03Y: cellulose-bound 13-mer variant DCYWHLGELVWCT-(βA)(βA) (DCYWHLGELVWCT-{βAla-βAla-cellulose}; disulfide 2-12 (inferred); reading uncertain; also: printed as DCYWHLGELVWCT-(βA)(βA)) | 0 | 0 | 0
08Y: cellulose-bound 13-mer variant DCAWHLGYLVWCT-(βA)(βA) (DCAWHLGYLVWCT-{βAla-βAla-cellulose}; disulfide 2-12 (inferred); reading uncertain; also: printed as DCAWHLGYLVWCT-(βA)(βA)) | 0 | 0 | 0
07L: cellulose-bound 13-mer variant DCAWHLLELVWCT-(βA)(βA) (DCAWHLLELVWCT-{βAla-βAla-cellulose}; disulfide 2-12 (inferred); not fully specified (N-terminus); printed as DCAWHLLELVWCT-(βA)(βA); reading uncertain) | 0 | 0 | 0
10W: cellulose-bound 13-mer variant DCAWHLGELWWCT-(βA)(βA) (DCAWHLGELWWCT-{βAla-βAla-cellulose}; disulfide 2-12 (inferred); reading uncertain; also: printed as DCAWHLGELWWCT-(βA)(βA)) | 0 | 0 | 0
02Q: cellulose-bound 13-mer variant DQAWHLGELVWCT-(βA)(βA) (DQAWHLGELVWCT[βAla][βAla]; not fully specified; printed as DQAWHLGELVWCT-(βA)(βA); also: cellulose-bound) | 0 | 0 | 0
08V: cellulose-bound 13-mer variant DCAWHLGVLVWCT-(βA)(βA) (DCAWHLGVLVWCT-{βAla-βAla-cellulose}; disulfide 2-12 (inferred); reading uncertain; also: printed as DCAWHLGVLVWCT-(βA)(βA)) | 0 | 0 | 0
05T: cellulose-bound 13-mer variant DCAWTLGELVWCT-(βA)(βA) (disulfide 2-12 (inferred); not fully specified (N-terminus, C-terminus); printed as DCAWTLGELVWCT-(βA)(βA); also: cellulose-bound) | 0 | 0 | 0
07D: cellulose-bound 13-mer variant DCAWHLDELVWCT-(βA)(βA) (DCAWHLDELVWCT-{βAla-βAla-cellulose}; disulfide 2-12 (inferred); not fully specified (N-terminus); printed as DCAWHLDELVWCT-(βA)(βA); reading uncertain) | + | + | 0
05L: cellulose-bound 13-mer variant DCAWLLGELVWCT-(βA)(βA) (disulfide 2-12 (inferred); not fully specified (N-terminus, C-terminus); printed as DCAWLLGELVWCT-(βA)(βA); also: cellulose-bound) | 0 | 0 | 0
05V: cellulose-bound 13-mer variant DCAWVLGELVWCT-(βA)(βA) (disulfide 2-12 (inferred); not fully specified (N-terminus, C-terminus); printed as DCAWVLGELVWCT-(βA)(βA); also: cellulose-bound) | 0 | 0 | 0
09R: cellulose-bound 13-mer variant DCAWHLGERVWCT-(βA)(βA) (DCAWHLGERVWCT-{βAla-βAla-cellulose}; disulfide 2-12 (inferred); reading uncertain; also: printed as DCAWHLGERVWCT-(βA)(βA)) | + | + | 0
03S: cellulose-bound 13-mer variant DCSWHLGELVWCT-(βA)(βA) (DCSWHLGELVWCT-{βAla-βAla-cellulose}; disulfide 2-12 (inferred); reading uncertain; also: printed as DCSWHLGELVWCT-(βA)(βA)) | + | + | 0
06R: cellulose-bound 13-mer variant DCAWHRGELVWCT-(βA)(βA) (DCAWHRGELVWCT-{βAla-βAla-cellulose}; disulfide 2-12 (inferred); not fully specified (N-terminus); printed as DCAWHRGELVWCT-(βA)(βA); reading uncertain) | + | + | 0
07Q: cellulose-bound 13-mer variant DCAWHLQELVWCT-(βA)(βA) (DCAWHLQELVWCT-{βAla-βAla-cellulose}; disulfide 2-12 (inferred); not fully specified (N-terminus); printed as DCAWHLQELVWCT-(βA)(βA); reading uncertain) | 0 | 0 | 0
